The values below come from patent US9250249B2, “Autophagy and phospholipidosis pathway assays” (Enzo Biochem, Inc., priority 2008, dated 2016).

One assay concerns HeLa cells. Briefly: Fluorescence microscopy lysosomal perturbation assay with Dye 6. The class given is cell-based. Conditions: chloroquine 120 μM for 6 hours, Dye 6 15 min. The procedure: HeLa cells were maintained in Dulbecco's modified Eagles medium supplemented with 10% FBS, 100 units/ml penicillin/streptomycin (Invitrogen, Carlsbad, Calif.) and MEM non essential amino acids in a humidified 37° C., 5% CO2 environment. Cells were allowed to proliferate on glass slides at a density of 2×10^4 cells/well and allowed to attach overnight. The cells were plated such that at the end of the experiment, they reached about 90% confluency.
The fluorescence-based lysosomal perturbation assay was established by first incubating cells cultivated on glass slides for 6 hours with chloroquine (120 μM final concentration), a well known phospholipidosis-inducing agent. Control cells were incubated with 0.1% (v/v) dimethyl sulfoxide (DMSO), which served as the vehicle control. Cells were then briefly (15 min) incubated with Dye 6 at room temperature. Following incubation, cells grown on glass microscope slides were covered with glass coverslips, sealed with nail polish and observed using an Olympus BX51 microscope. Images were acquired with a 40× objective lens. […] The untreated cells gave a low level of fluorescent staining.

For assay [1], the system named is U2OS cells. As to the kind of experiment: Lipid-Tox fluorescent phospholipid analog-based phospholipidosis assay. It counts as cell-based, human. Conditions: 24 hours co-incubation with Lipid-Tox dye and drug. The procedure:
Many assays of phospholipidosis, including the Lipid-Tox assay (Invitrogen, Carlsbad, Calif.), are based upon co-incubating cells with a fluorescent phospholipid analog for an extended period of time, along with the drug or test agent being evaluated, and then monitoring signal generation in fixed and permeabilized cells. Dye 1 is not a fluorescent phospholipid analog, but instead is a cationic amphiphilic fluorophore tracer. Cells are incubated with the drug or test agent in isolation and then briefly treated with the tracer dye before evaluation in live cells. […] Choloroquine, a prototypical phospholipidosis-inducing agent, and bafilomycin A, an agent well known to induce the accumulation of autophagosomes, were evaluated using both Dye 1 and Lipid-Tox dye-based assays (FIG. 3). […] Cells stained with Lipid-Tox dye (solid triangles dash-dot line) were incubated in the presence of the fluorescent lipid for 24 hours during treatment with the drugs.

For assay [2], the system named is U2OS cells. As to the kind of experiment: Fluorescence microplate-based lysosomal perturbation assay (Dye 1 fluorescence), incl. ICCB library screen.
Procedure: In order to increase throughput and reduce handling time, the fluorescence microscopy-based lysosomal perturbation assay was scaled up to a 96-well microplate plate assay format and analyzed using a fluorescence microplate reader.
Fluorescence intensity of the cells cultured on the 96-well plates was measured using a FLUOstar OPTIMA Multifunction Microplate Reader (BMG LabTech, Offenburg, Germany). […] Fluorescence intensity was expressed as percentage of the vehicle control value.
In the preliminary screen, test agents were employed at a single dose in an effort to identify any potential lysosome-modifying agents.
For assay [3], the system named is U2OS human osteosarcoma cells. Briefly: Fluorescence microscopy-based lysosomal perturbation assay (Dye 1 staining). The class given is cell-based. To be noted: U2OS cells pre-treated with drug (chloroquine 8-64 μM, 18 hours), Dye 1 15 min. As to the method:
U2OS human osteosarcoma cells were maintained in McCoy's 5a modified medium supplemented with 10% FBS and 100 units/ml penicillin/streptomycin (Invitrogen, Carlsbad, Calif.) in a humidified 37° C., 5% CO2 environment. Cells were allowed to proliferate on glass slides or were seeded into 96-well plates at a density of 2×10^4 cells/well and allowed to attach overnight. The cells were plated such that at the end of the experiment, they reached about 90% confluency.
The fluorescence-based lysosomal perturbation assay was established by first incubating cells cultivated on glass slides for 4-24 hours with chloroquine (8-64 μM final concentration), a well known phospholipidosis-inducing agent. Control cells were incubated with 0.1% (v/v) dimethyl sulfoxide (DMSO), which served as the vehicle control. Cells were then briefly (15 min) incubated with a combination of Dye 1 and Hoechst 33342 dye. Following incubation, cells grown on glass microscope slides were covered with glass coverslips, sealed with nail polish and observed using an inverted Axiovert 200M microscope (Carl Zeiss, Inc., Oberkochen, Germany). Images were acquired with a 63× objective lens (Zeiss).
Cells were subsequently stained with Dye 1 for 15 minutes. Nuclei were counter-stained with Hoechst 33342 dye. In FIG. 1, control U2OS cells are shown in (A), cells pre-treated for 18 hours with 8 μM chloroquine in (B), cells pre-treated for 18 hours with 16 μM chloroquine in (C) and cells pre-treated for 18 hours with 64 μM chloroquine in (D). This staining pattern was also consistently observed for other drugs that are known to induce phospholipidosis, such as chlorpromazine, fluoxetine, pimozide and verapamil (further described in Example 4). […] The ability of Dye 1 to detect vacuole accumulation in the described in vitro cell culture model mimicking Fabry disease strongly supports the present invention and its suitability for the detection of genetically derived lysosomal storage diseases.

Assay [4] concerns U2OS cells. As to the kind of experiment: Multiplexed CF-PE / Dye 1 / Hoechst 33342 microplate assay distinguishing phospholipidosis from autophagy pathway inhibition. It counts as cell-based, human. Conditions: 24 h with CF-PE medium and test compound. The procedure: For example, CF-PE was suspended in ethanol and diluted in the cell culture medium (McCoy's 5a modified medium, as described in Example 3) to give a solution (CF-PE medium) with final concentration of 50 μM (0.46% ethanol). […] medium was then sonicated and filtered through a […] filter. The prepared was then applied to U2OS cells growing in a 96-well microplate. After an equilibration period of 24 h, the cell culture medium was replaced with CF-PE medium with or without each test compound, and the cells were incubated at 37° C. for an additional 24 h. After incubation, the cells were rinsed with medium and further incubated with the same medium containing Dye 1 and Hoechst 33342 dye for an additional 15 min at 37° C. in 5% CO2 atmosphere.
Fluorescence signal was determined using a standard microplate reader, as described in example 4, except that CF-PE was additionally read at an excitation wavelength of 492 nm and an emission wavelength of 517 nm. […] Generalized cytotoxicity is evident as a substantial decrease in blue signal (≧30%) relative to vehicle-treated control cells.

pEC50: −log10 of the molar value.

In the case of `CCN(CC)CCCC(C)Nc1ccnc2cc(Cl)ccc12` (stereo not shown) [chloroquine], in the assay with HeLa cells, the “fluorescence intensity of lysosomal staining with Dye 6” value was “increase in fluorescence intensity of lysosomal staining”. Further, in the assay on U2OS cells [1], the “vacuolation / expansion of lysosomal compartment detected by Lipid-Tox assay” value is reported as “induced an expansion in the lysosomal compartment”. In the assay with U2OS cells [2] (Dye 1 stained post drug incubation), the “vacuolation / expansion of lysosomal compartment detected by Dye 1 assay” value is “induced an expansion in the lysosomal compartment”. Besides, in the assay on U2OS cells [2] (Homo sapiens, 18 h, read-out: EC50 (Dye 1-based assay)), the negative-log EC50 (pEC50) was 4.82. Also, the “punctate pattern of cytoplasmic staining / levels of Dye 1 in the cells” value in assay [3] is “increased in a dose-dependent manner”. The “green signal (CF-PE) relative to vehicle-treated controls” value in the assay with U2OS cells [4] (ex 492 nm, em 517 nm) is “increased green and red signal”. For the same molecule, the “red signal (Dye 1) relative to vehicle-treated controls” value with U2OS cells [4] (then Dye 1 15 min) is “increased green and red signal”.

In general, pEC50 refers to the EC50 on a negative log10 scale, so that one unit is a factor of ten.
